# Values of other authors, collected in patent publication US10806871B2, “Inhalable dry powders” (priority 2012, dated 2020).
# Settings: listing, cf. PCT Publication WO/2004/062643; cited from earlier work
row,Structure (SMILES),Solubility In Water
1,Cc1nnc2n1-c1ccc(Cl)cc1C(c1ccccc1)=NC2 [Alprazolam],Insoluble
2,CCOC(=O)C1=C(COCCN)NC(C)=C(C(=O)OC)C1c1ccccc1Cl (stereo not shown) [Amlodipine],Slightly
3,Cn1cnc([N+](=O)[O-])c1Sc1ncnc2nc[nH]c12 [Azathioprine],Insoluble
4,CN1CCCC(n2nc(Cc3ccc(Cl)cc3)c3ccccc3c2=O)CC1 (stereo not shown) [Azelastine],Insoluble
5,C=CCC1(CC(C)C)C(=O)NC(=O)NC1=O [Butalbital],Insoluble
6,NC(=O)N1c2ccccc2C=Cc2ccccc21 [Carbamazepine],Insoluble
7,C[C@@](Cc1ccc(O)c(O)c1)(NN)C(=O)O [Carbidopa],Slightly
8,CO/N=C(\C(=O)N[C@@H]1C(=O)N2C(C(=O)O)=C(COC(C)=O)CS[C@H]12)c1csc(N)n1 [Cefotaxime],Sparingly
9,CC[C@H]1OC(=O)[C@H](C)[C@@H](O[C@H]2C[C@@](C)(OC)[C@@H](O)[C@H](C)O2)[C@H](C)[C@@H](O[C@@H]2O[C@H](C)C[C@H](N(C)C)[C@H]2O)[C@](C)(OC)C[C@@H](C)C(=O)[C@H](C)[C@@H](O)[C@]1(C)O [Clarithromycin],Insoluble
10,CN1CCN(C2=Nc3cc(Cl)ccc3Nc3ccccc32)CC1 [Clozapine],Slightly
11,O=C(O)Cc1ccccc1Nc1c(Cl)cccc1Cl [Diclofenac sodium],Sparingly
12,OCCN(CCO)c1nc(N2CCCCC2)c2nc(N(CCO)CCO)nc(N3CCCCC3)c2n1 [Dipyridamole],Slightly
13,CCCC(CCC)C(=O)O [Divalproex],Slightly
14,CC(CCc1ccc(O)cc1)NCCc1ccc(O)c(O)c1 (stereo not shown) [Dobutamine],Sparingly
15,COc1cc2nc(N3CCN(C(=O)C4COc5ccccc5O4)CC3)nc(N)c2cc1OC (stereo not shown) [Doxazosin],Slightly
16,CCOC(=O)[C@H](CCc1ccccc1)N[C@@H](C)C(=O)N1CCC[C@H]1C(=O)O [Enalapril],Sparingly
17,CCc1cccc2c3c([nH]c12)C(CC)(CC(=O)O)OCC3 (stereo not shown) [Etodolac],Insoluble
18,COc1cc([C@@H]2c3cc4c(cc3[C@@H](O[C@@H]3O[C@@H]5CO[C@@H](C)O[C@H]5[C@H](O)[C@H]3O)[C@H]3COC(=O)[C@H]23)OCO4)cc(OC)c1O [Etoposide],Very Slightly
19,CC(C)(C)NC(=O)[C@H]1CC[C@H]2[C@@H]3CC[C@H]4NC(=O)C=C[C@]4(C)[C@H]3CC[C@]12C [Finasteride],Insoluble
20,OC(Cn1cncn1)(Cn1cncn1)c1ccc(F)cc1F [Fluconazole],Slightly
21,CC(C(=O)O)c1ccc(-c2ccccc2)c(F)c1 (stereo not shown) [Flurbiprofen],Slightly

row,Structure (SMILES),Solubility In Water
1,COCCCC/C(=N\OCCN)c1ccc(C(F)(F)F)cc1 [Fluvoxamine],Sparingly
2,CC(C)Cc1ccc(C(C)C(=O)O)cc1 (stereo not shown) [Ibuprofen],Insoluble
3,CC1=C(/C=C/C(C)=C/C=C/C(C)=C\C(=O)O)C(C)(C)CCC1 [Isotretinoin],Insoluble
4,CCC(C)n1ncn(-c2ccc(N3CCN(c4ccc(OCC5COC(Cn6cncn6)(c6ccc(Cl)cc6Cl)O5)cc4)CC3)cc2)c1=O (stereo not shown) [Itraconzole],Insoluble
5,CC(=O)N1CCN(c2ccc(OCC3COC(Cn4ccnc4)(c4ccc(Cl)cc4Cl)O3)cc2)CC1 (stereo not shown) [Ketoconazole],Insoluble
6,Nc1nnc(-c2cccc(Cl)c2Cl)c(N)n1 [Lamotrigine],Slightly
7,Cc1c(OCC(F)(F)F)ccnc1C[S+]([O-])c1nc2ccccc2[nH]1 (stereo not shown) [Lansoprazole],Insoluble
8,CC[C@H](C)C(=O)O[C@H]1C[C@@H](C)C=C2C=C[C@H](C)[C@H](CC[C@@H]3C[C@@H](O)CC(=O)O3)[C@H]21 [Lovastatin],Insoluble
9,Cc1cccc(Nc2ccccc2C(=O)O)c1C [Mefenamic acid],Slightly
10,Cc1ncc2n1-c1ccc(Cl)cc1C(c1ccccc1F)=NC2 [Midazolam],Insoluble
11,C[C@@H]1C[C@H]2[C@@H]3CCC4=CC(=O)C=C[C@]4(C)[C@@]3(Cl)[C@@H](O)C[C@]2(C)[C@@]1(O)C(=O)CCl [Mometasone],Insoluble
12,CO[C@]12C[C@@H](COC(=O)c3cncc(Br)c3)CN(C)[C@@H]1Cc1cn(C)c3cccc2c13 [Nicergoline],Insoluble
13,COc1ccc2[nH]c([S+]([O-])Cc3ncc(C)c(OC)c3C)nc2c1 (stereo not shown) [Omeprazole],Slightly
14,CC(=O)O[C@H]1C(=O)[C@@]2(C)[C@H]([C@H](OC(=O)c3ccccc3)[C@]3(O)C[C@H](OC(=O)[C@H](O)[C@@H](NC(=O)c4ccccc4)c4ccccc4)C(C)=C1C3(C)C)[C@]1(OC(C)=O)CO[C@@H]1C[C@@H]2O [Paclitaxel],Insoluble
15,O=C1NC(=O)C(c2ccccc2)(c2ccccc2)N1 [Phenytoin],Insoluble
16,CN1C(C(=O)Nc2ccccn2)=C(O)c2ccccc2S1(=O)=O [Piroxicam],Sparingly
17,CCOC(=O)[C@H](CCc1ccccc1)N[C@@H](C)C(=O)N1[C@H](C(=O)O)C[C@@H]2CCC[C@@H]21 [Ramipril],Insoluble
18,Cc1nc2n(c(=O)c1CCN1CCC(c3noc4cc(F)ccc34)CC1)CCCC2 [Risperidone],Insoluble
19,CN(C/C=C/C#CC(C)(C)C)Cc1cccc2ccccc12 [Terbinafine],Slightly
20,CC(C)(C)c1ccc(C(O)CCCN2CCC(C(O)(c3ccccc3)c3ccccc3)CC2)cc1 (stereo not shown) [Terfenadine],Slightly
21,Cc1ccc(-c2nc3ccc(C)cn3c2CC(=O)N(C)C)cc1 [Zolpidem],Sparingly

# Settings: listing; cited from earlier work
row,Structure (SMILES),Bioavailability
1,CCCC1O[C@@H]2C[C@H]3[C@@H]4CCC5=CC(=O)C=C[C@]5(C)[C@H]4[C@@H](O)C[C@]3(C)[C@]2(C(=O)CO)O1 (stereo partly shown) [Budesonide],Low
2,C#C[C@]1(O)CC[C@H]2[C@@H]3CCC4=Cc5oncc5C[C@]4(C)[C@H]3CC[C@@]21C [Danazol],Low
3,NC(N)=Nc1nc(CSCCC(N)=NS(N)(=O)=O)cs1 [Famotidine],Low
4,O=[N+]([O-])O[C@H]1CO[C@H]2[C@@H]1OC[C@H]2O[N+](=O)[O-] [Isosorbide dinitrate],Low
5,Nc1ccc(O)c(C(=O)O)c1 [Mesalamine],Low
6,CCn1cc(C(=O)O)c(=O)c2cc(F)c(N3CCNCC3)cc21 [Norfloxacin],Low
7,OCCN1CCN(CCCN2c3ccccc3Sc3ccc(Cl)cc32)CC1 [Perphenazine],Low
